Like-named read-outs stand apart in the source and are kept apart here. Each block holds one compound with its values, some of them ahead of it.
Assays:
[1] = system: patients with sickle cell anemia, sickle cell disease and beta-thalassemia; conditions: limited set of clinical studies; cited from earlier work
[2] = system: erythroid progenitor cells; conditions: cited from earlier work
[3] = system: erythroid progenitor cells (EPCs); assay: Fetal hemoglobin (HbF) ELISA in day 7 erythroid progenitor cells; format: cell-based, human; conditions: Homo sapiens, Erythroid progenitor cell, HbF ELISA, day 7 EPCs, 5 days; read-out: EPC ELISA (pEC50 category) (converted);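 further: for fetal hemoglobin induction normalized to vehicle-treated cells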
Procedure, shortened: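 Day 7 EPCs from human bone marrow CD34+ cells were plated at 1,000 cells/well in media with 3 U/mL rhEPO. They were exposed to a 22-point dilution ([…]) for 5 days at 37 °C. Lysate HbF was measured by sandwich ELISA (OD450) and normalized to DMSO control wells.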

MV-4-11 AML cells = assay: MV-4-11 cell proliferation assay (CellTiter-Glo, 6 days); format: cell-based; conditions: Homo sapiens, MV4-11, 144 h; 6 days treatment; binning as pXC50; read-out: MV4-11 Anti-proliferative activity (EC50 category)
Experimental: MV-4-11 Anti-Proliferative Activity (pEC50 Category)
Cell proliferation assay. Optimal cell seeding density was determined empirically for MV-4-11 AML cells by examining the growth of a wide range of seeding densities in a 384-well format to identify conditions that permitted maximal and continued proliferation for 6 days. MV-4-11 cells were plated in duplicate plates 24 hours before treatment with a 20-point two-fold dilution series of compound or 0.15% DMSO. Plates were incubated for 6 days at 37° C. in 5% CO2. Cells were then lysed with CellTiter-Glo (CTG) (Promega) and chemiluminescent signal was detected with an appropriate microplate reader. In addition, an untreated plate of cells was harvested at the time of compound addition (T0) to quantify the initial cell density. CTG values obtained after 6 days of treatment were expressed as a percent of the T0 value and plotted against compound concentration. Data were fit with a four parameter equation to generate a concentration response curve from which growth IC50 values were calculated.

DNMT3B = DNMT3B (Homo sapiens (Human), UniProt Q9UBC3); assay: DNMT3B breaklight assay; format: biochemical; conditions: read-out: DNMT3B Breaklight IC50
human DNMT3a/3l = human DNMT3a/3l (Homo sapiens (Human), UniProt Q9Y6K1); assay: DNMT3a/3l breaklight assay; format: biochemical; conditions: read-out: DNMT3A Breaklight IC50
Chain of human DNMT3a/3l (Q9Y6K1 whole entry, looked up): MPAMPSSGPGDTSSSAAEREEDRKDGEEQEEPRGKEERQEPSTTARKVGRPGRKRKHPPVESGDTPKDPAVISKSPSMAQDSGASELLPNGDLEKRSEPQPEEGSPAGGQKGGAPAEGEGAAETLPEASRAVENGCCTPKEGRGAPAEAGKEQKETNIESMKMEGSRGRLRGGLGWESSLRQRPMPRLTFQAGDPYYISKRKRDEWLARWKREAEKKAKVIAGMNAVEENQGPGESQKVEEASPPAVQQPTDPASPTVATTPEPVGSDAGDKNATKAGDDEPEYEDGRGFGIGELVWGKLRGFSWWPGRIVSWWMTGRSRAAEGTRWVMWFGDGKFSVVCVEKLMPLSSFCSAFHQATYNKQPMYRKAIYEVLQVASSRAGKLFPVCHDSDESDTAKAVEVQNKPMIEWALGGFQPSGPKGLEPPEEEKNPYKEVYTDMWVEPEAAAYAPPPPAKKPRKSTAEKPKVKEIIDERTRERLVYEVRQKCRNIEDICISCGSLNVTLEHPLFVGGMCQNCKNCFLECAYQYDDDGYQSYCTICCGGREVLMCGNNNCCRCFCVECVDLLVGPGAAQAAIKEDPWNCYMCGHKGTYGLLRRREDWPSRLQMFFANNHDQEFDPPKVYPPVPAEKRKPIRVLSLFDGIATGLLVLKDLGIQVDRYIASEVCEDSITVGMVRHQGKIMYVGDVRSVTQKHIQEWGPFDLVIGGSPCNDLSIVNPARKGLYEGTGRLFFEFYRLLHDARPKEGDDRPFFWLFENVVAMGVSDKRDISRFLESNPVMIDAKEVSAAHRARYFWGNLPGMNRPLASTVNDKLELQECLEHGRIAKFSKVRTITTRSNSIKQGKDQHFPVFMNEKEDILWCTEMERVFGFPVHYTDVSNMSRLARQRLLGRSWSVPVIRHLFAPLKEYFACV
Chain of human DNMT3a/3l (Q9UJW3 whole entry partner, looked up): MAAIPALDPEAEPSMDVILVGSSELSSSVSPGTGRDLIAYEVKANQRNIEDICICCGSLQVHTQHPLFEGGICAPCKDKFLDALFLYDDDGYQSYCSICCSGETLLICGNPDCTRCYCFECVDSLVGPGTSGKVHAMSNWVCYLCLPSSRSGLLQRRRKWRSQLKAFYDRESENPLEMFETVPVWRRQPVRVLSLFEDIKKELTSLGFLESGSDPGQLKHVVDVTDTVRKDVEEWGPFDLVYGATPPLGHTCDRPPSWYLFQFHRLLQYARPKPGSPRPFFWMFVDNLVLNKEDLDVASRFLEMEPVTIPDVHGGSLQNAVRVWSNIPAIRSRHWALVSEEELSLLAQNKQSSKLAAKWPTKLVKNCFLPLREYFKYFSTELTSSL
Experimental: DNMT3a/3l Breakliqht Assay
DNMT3a/3l breaklight in vitro assays were conducted in a total volume of 50 μl in a standard 384 well format, using black non-binding surface microplates (Corning #3575). […] Negative control wells used 5 μl of DNMT3a/3l and 5 μl of oligonucleotide but also included 200 μM SAH. All reagents were made up in 1× assay buffer (20 mM Tris pH 7.4, 100 mM NaCl, 1.5 mM EDTA, 0.1 mM MgCl2, 1 mM CHAPS and 1 mM DTT). The reaction was incubated at 37° C. for 90 min and then stopped with the addition of 40 μl detection reagent. Detection reagent, made up in 1× Gla assay buffer (20 mM Tris pH 8.0, 80 mM NaCl, 0.75 mM MgCl2, 0.01% Triton X100 and 1 mM DTT) has a final concentration of 200 μM SAH (Sigma #A9384) and 0.0008 units/μl Gla1 restriction endonuclease (Sibenzyme #E494). Following addition of the detection reagent the plate was incubated in the dark at room temperature for 5 hr. Fluorescence intensity was then measured on the PHERAstar FS (BMG Labtech) at Ex 485 nm and Em 520 nm, with a gain of 400 and an integration time of 100 ms.

DNMT1 = DNMT1 (Homo sapiens, UniProt P26358); assay: DNMT1 biochemical activity, breaklight assay and/or SPA assay
Chain of DNMT1 (P26358 whole entry, looked up): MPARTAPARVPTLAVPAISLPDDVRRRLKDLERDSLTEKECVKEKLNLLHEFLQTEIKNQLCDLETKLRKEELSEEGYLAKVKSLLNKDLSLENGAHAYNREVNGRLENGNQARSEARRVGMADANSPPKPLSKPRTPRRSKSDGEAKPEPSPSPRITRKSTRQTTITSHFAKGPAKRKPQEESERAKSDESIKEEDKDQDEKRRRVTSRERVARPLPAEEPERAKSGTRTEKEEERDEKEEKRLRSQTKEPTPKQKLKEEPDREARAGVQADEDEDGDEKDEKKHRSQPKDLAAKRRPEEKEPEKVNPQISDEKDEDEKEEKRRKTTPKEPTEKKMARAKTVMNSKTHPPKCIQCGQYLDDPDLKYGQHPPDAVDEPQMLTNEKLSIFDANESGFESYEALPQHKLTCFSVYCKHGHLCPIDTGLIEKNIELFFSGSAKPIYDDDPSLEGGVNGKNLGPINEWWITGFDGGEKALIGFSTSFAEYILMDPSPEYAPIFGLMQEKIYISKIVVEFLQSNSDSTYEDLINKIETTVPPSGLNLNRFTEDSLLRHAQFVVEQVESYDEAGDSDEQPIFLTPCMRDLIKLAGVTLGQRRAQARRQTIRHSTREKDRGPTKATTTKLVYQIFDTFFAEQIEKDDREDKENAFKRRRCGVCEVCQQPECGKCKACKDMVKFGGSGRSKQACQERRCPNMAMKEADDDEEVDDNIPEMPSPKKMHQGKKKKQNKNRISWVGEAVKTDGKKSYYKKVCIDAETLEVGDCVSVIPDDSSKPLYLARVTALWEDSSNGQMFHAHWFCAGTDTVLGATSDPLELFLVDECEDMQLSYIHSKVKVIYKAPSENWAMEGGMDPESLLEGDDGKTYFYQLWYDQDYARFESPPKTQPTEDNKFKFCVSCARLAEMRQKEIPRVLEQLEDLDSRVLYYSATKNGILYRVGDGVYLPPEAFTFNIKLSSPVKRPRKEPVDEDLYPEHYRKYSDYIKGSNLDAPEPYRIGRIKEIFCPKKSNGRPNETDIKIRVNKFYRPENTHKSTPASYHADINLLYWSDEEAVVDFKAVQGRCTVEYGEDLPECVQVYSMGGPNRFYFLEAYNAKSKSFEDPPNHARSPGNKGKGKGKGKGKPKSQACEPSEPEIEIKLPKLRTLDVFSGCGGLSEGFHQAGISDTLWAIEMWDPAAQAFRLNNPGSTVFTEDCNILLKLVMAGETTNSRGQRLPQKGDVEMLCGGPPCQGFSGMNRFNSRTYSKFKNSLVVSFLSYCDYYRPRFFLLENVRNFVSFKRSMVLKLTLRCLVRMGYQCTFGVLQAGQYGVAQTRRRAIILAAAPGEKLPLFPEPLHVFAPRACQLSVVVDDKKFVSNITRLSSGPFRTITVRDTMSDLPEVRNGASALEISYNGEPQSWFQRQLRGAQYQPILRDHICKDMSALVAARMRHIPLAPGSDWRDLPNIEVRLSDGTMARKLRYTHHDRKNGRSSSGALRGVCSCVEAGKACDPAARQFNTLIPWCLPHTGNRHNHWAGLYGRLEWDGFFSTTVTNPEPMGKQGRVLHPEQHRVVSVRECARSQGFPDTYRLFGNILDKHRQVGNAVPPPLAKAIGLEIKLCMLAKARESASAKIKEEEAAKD

[4] = binned activity in either the breaklight or the SPA assay, read-out: DNMT1 BioChemical (pIC50 category) (converted)
[5] = binned activity in either the breaklight or the SPA assay

Compound: Nc1ncn([C@@H]2O[C@H](CO)[C@@H](O)[C@H]2O)c(=O)n1 [5-azacytidine]
fetal hemoglobin in patients [1]: caused increases in fetal hemoglobin
induction of fetal hemoglobin [2]: known inducers of fetal hemoglobin

Compound: Nc1ncn([C@H]2C[C@H](O)[C@@H](CO)O2)c(=O)n1 [5-aza-2′-deoxycytidine (decitabine), 5-aza-2′-deoxycytidine]
fetal hemoglobin in patients [1]: caused increases in fetal hemoglobin
induction of fetal hemoglobin [2]: known inducers of fetal hemoglobin

Compound: CCc1c(C#N)c(N[C@@H](C(N)=O)c2ccccc2)nc(N2CCCN(CCO)CC2)c1C#N [Example 114, (2R)-2-({3,5-Dicyano-4-ethyl-6-[4-(2-hydroxyethyl)-1,4-diazepan-1-yl]pyridin-2-yl}amino)-2-phenylacetamide]
EC50 [3]: 1000 to 31600 nM
EC50 (MV-4-11 AML cells): 1000 to 31600 nM
IC50 (DNMT1; [4]): 316 to 1000 nM

Compound: CCc1c(C#N)c(SC(C(N)=O)c2ccccc2)nc(N2CCC(C3CCNCC3)CC2)c1C#N (stereo not shown) [Example 122, 2-((6-([4,4′-Bipiperidin]-1-yl)-3,5-dicyano-4-ethylpyridin-2-yl)thio)-2-phenylacetamide; 2,2,2-trifluoroacetic acid]
EC50 [3]: < 316 nM
EC50 (MV-4-11 AML cells): 316 to 1000 nM
DNMT1 BioChemical (pIC50 category) (DNMT1; [5]): D (Category D: ≥6.5)
average pIC50 against DNMT1 (DNMT1; breaklight assay and/or SPA assay, repeated experimental runs): > 6.5

Further lines, results first:

EC50 [3]: < 316 nM
EC50 (MV-4-11 AML cells): 316 to 1000 nM
IC50 (DNMT3B): > 500 µM
Compound: CCc1c(C#N)c(S[C@@H](C(N)=O)c2ccccc2)nc(N(C)C)c1C#N [Example 64, (R)-2-((3,5-dicyano-6-(dimethylamino)-4-ethylpyridin-2-yl)thio)-2-phenylacetamide]

EC50 (MV-4-11 AML cells): 1000 to 31600 nM
IC50 (DNMT3B): > 500 µM
IC50 (human DNMT3a/3l): > 500 µM
IC50 (DNMT1; [4]): 316 to 1000 nM
IC50 (DNMT1; breaklight assay and/or SPA assay, repeated experimental runs, read-out: average pIC50 against DNMT1 (converted)): 316 to 1000 nM
Compound: N#Cc1c(SC(C(N)=O)c2ccccc2)nc(N2CCOCC2)c(C#N)c1C1CC1 (stereo not shown) [Example 130, 2-[(3,5-Dicyano-4-cyclopropyl-6-morpholino-2-pyridyl)sulfanyl]-2-phenyl-acetamide]

EC50 [3]: < 316 nM
EC50 (MV-4-11 AML cells): 1000 to 31600 nM
DNMT1 BioChemical (pIC50 category) (DNMT1; [5]): D (Category D: ≥6.5)
Compound: N#Cc1c(SC(C(N)=O)c2ccccc2)nc(N2CCCNCC2)c(C#N)c1C1CC1 (stereo not shown) [Example 4, 2-((3,5-dicyano-4-cyclopropyl-6-(1,4-diazepan-1-yl)pyridin-2-yl)thio)-2-phenylacetamide]
